Values joined by “and” are separate entries in the source; they are usually repeats but may differ in a detail not shown here. Equal entries are not always repeated. Toxic doses and inconclusive results are not listed.
Test system: BDF1 mice, P388 leukemia ip, median survival T/C
Experiment: NCI In Vivo Anticancer Drug Screen. Data for tumor model P388 Leukemia (intraperitoneal) in B6D2F1 (BDF1) mice
Settings: endpoint: median survival time, higher = longer survival
How it was run: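 Compound-treated tumour-bearing mice were compared with vehicle-treated controls. Survival was recorded, and the value is the treated-group measurement divided by the control-group measurement (T/C).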

[1] = dose: 12.0 mg/kg/injection, schedule: Q04DX003 (ip), vehicle: saline
[2] = dose: 25.0 mg/kg/injection, schedule: Q04DX003 (ip), vehicle: saline
[3] = dose: 50.0 mg/kg/injection, schedule: Q01DX009 (ip), vehicle: saline
[4] = dose: 50.0 mg/kg/injection, schedule: Q04DX003 (ip), vehicle: saline
[5] = dose: 400.0 mg/kg/injection, schedule: Q04DX003 (ip), vehicle: saline
[6] = dose: 100.0 mg/kg/injection, schedule: Q01DX009 (ip), vehicle: saline
[7] = dose: 100.0 mg/kg/injection, schedule: Q04DX003 (ip), vehicle: saline
[8] = dose: 200.0 mg/kg/injection, schedule: Q01DX009 (ip), vehicle: saline
[9] = dose: 400.0 mg/kg/injection, schedule: Q01DX009 (ip), vehicle: saline
[10] = dose: 200.0 mg/kg/injection, schedule: Q04DX003 (ip), vehicle: saline

CN(C)Cc1cccc(N)c1
T/C (dose: 0.25 mg/kg/injection, schedule: Q01DX009 (ip), vehicle: water): 120 % of control | T/C (dose: 0.5 mg/kg/injection, schedule: Q01DX009 (ip), vehicle: water): 111 % of control | T/C (dose: 1.0 mg/kg/injection, schedule: Q01DX009 (ip), vehicle: water): 113 % of control | T/C (dose: 2.0 mg/kg/injection, schedule: Q01DX009 (ip), vehicle: water): 120 % of control | T/C (dose: 4.0 mg/kg/injection, schedule: Q01DX009 (ip), vehicle: water): 92 % of control | T/C (dose: 12.5 mg/kg/injection, schedule: Q04DX003 (ip), vehicle: water): 100 % of control | T/C (dose: 25.0 mg/kg/injection, schedule: Q04DX003 (ip), vehicle: water): 100 % of control | T/C (dose: 50.0 mg/kg/injection, schedule: Q04DX003 (ip), vehicle: water): 91 % of control | T/C (dose: 100.0 mg/kg/injection, schedule: Q04DX003 (ip), vehicle: water): 97 % of control

C/C=C1\C[N+]2(C)CCc3c([nH]c4ccccc34)C2CC1Cc1nccc2c1[nH]c1ccccc12 (stereo not drawn)
T/C (dose: 1.0 mg/kg/injection, schedule: Q04DX003 (ip), vehicle: saline): 107 % of control | T/C (dose: 2.0 mg/kg/injection, schedule: Q04DX003 (ip), vehicle: saline): 98 % of control | T/C (dose: 4.0 mg/kg/injection, schedule: Q04DX003 (ip), vehicle: saline): 98 % of control | T/C (dose: 6.0 mg/kg/injection, schedule: Q04DX003 (ip), vehicle: saline): 102 % of control | T/C [1]: 113 % of control | T/C (dose: 24.0 mg/kg/injection, schedule: Q04DX003 (ip), vehicle: saline): 118 % of control | T/C (dose: 48.0 mg/kg/injection, schedule: Q04DX003 (ip), vehicle: saline): 110 % of control

NC(CSC(c1ccccc1)(c1ccccc1)c1ccc(CO)cc1)C(=O)O (stereo not drawn)
T/C (dose: 3.0 mg/kg/injection, schedule: Q01DX009 (ip), vehicle: Klucel (hydroxypropylcellulose) (HPC)): 100 % of control | T/C (dose: 6.0 mg/kg/injection, schedule: Q01DX009 (ip), vehicle: Klucel (hydroxypropylcellulose) (HPC)): 113 % of control | T/C (dose: 12.0 mg/kg/injection, schedule: Q01DX009 (ip), vehicle: Klucel (hydroxypropylcellulose) (HPC)): 122 % of control | T/C (dose: 12.0 mg/kg/injection, schedule: Q01DX009 (ip), vehicle: saline): 109 % of control | T/C [1]: 100 % of control | T/C (dose: 25.0 mg/kg/injection, schedule: Q01DX009 (ip), vehicle: Klucel (hydroxypropylcellulose) (HPC)): 150 % of control | T/C (dose: 25.0 mg/kg/injection, schedule: Q01DX009 (ip), vehicle: saline): 159 % of control | T/C [2]: 103 % of control | T/C (dose: 50.0 mg/kg/injection, schedule: Q01DX009 (ip), vehicle: Klucel (hydroxypropylcellulose) (HPC)): 168 % of control | T/C [3]: 163 % of control | T/C [4]: 111 % of control | T/C (dose: 75.0 mg/kg/injection, schedule: Q01DX009 (ip), vehicle: Klucel (hydroxypropylcellulose) (HPC)): 159 % of control | T/C (dose: 150.0 mg/kg/injection, schedule: Q01DX009 (ip), vehicle: Klucel (hydroxypropylcellulose) (HPC)): 154 % of control | T/C (dose: 300.0 mg/kg/injection, schedule: Q01DX009 (ip), vehicle: Klucel (hydroxypropylcellulose) (HPC)): 259 % of control | T/C (dose: 400.0 mg/kg/injection, schedule: Q01DX009 (ip), vehicle: Klucel (hydroxypropylcellulose) (HPC)): 272 % of control | T/C [5]: 155 % of control

Cc1ccc(C)c(C(=O)C2CC2)c1
T/C (dose: 50.0 mg/kg/injection, schedule: Q04DX003 (ip), vehicle: saline with Tween-80): 100 % of control | T/C (dose: 100.0 mg/kg/injection, schedule: Q01DX009 (ip), vehicle: saline with Tween-80): 100 % of control | T/C (dose: 100.0 mg/kg/injection, schedule: Q04DX003 (ip), vehicle: saline with Tween-80): 120 % of control | T/C (dose: 150.0 mg/kg/injection, schedule: Q01DX009 (ip), vehicle: saline with Tween-80): 103 % of control | T/C (dose: 200.0 mg/kg/injection, schedule: Q01DX009 (ip), vehicle: saline with Tween-80): 110 % of control | T/C (dose: 200.0 mg/kg/injection, schedule: Q04DX003 (ip), vehicle: saline with Tween-80): 100 % of control

CC(C(=O)O)C(=O)O.[NH-]C1CCCCC1[NH-].[Pt+2]
T/C (dose: 50.0 mg/kg/injection, schedule: Q04DX002 (ip), vehicle: Klucel (hydroxypropylcellulose) (HPC)): 150 % of control | T/C (dose: 200.0 mg/kg/injection, schedule: Q04DX002 (ip), vehicle: Klucel (hydroxypropylcellulose) (HPC)): 203 % of control

O=C(O)CS(=O)(=O)c1ccccc1
T/C [2]: 109 % of control | T/C (dose: 50.0 mg/kg/injection, schedule: Q01DX001 (ip), vehicle: other): 95 % of control | T/C [3]: 108 % of control | T/C [4]: 109 % of control | T/C (dose: 100.0 mg/kg/injection, schedule: Q01DX001 (ip), vehicle: other): 100 % of control | T/C [6]: 120 % of control | T/C [7]: 100 % of control | T/C [8]: 108 % of control

CCCCCCCCCCCCCCCCOc1ccc(Cl)cc1
T/C (dose: 25.0 mg/kg/injection, schedule: Q01DX001 (ip), vehicle: saline sonified): 109 % of control | T/C (dose: 50.0 mg/kg/injection, schedule: Q01DX001 (ip), vehicle: saline sonified): 100 % of control

CS(C)=O
T/C [8]: 100 % of control | T/C [9]: 100 % of control | T/C (dose: 600.0 mg/kg/injection, schedule: Q01DX009 (ip), vehicle: saline): 100 % of control | T/C (dose: 800.0 mg/kg/injection, schedule: Q01DX009 (ip), vehicle: saline): 95 % of control

c1ccc2n[se]nc2c1
T/C (dose: 1.56 mg/kg/injection, schedule: Q04DX003 (ip), vehicle: saline): 108 % of control | T/C (dose: 3.13 mg/kg/injection, schedule: Q04DX003 (ip), vehicle: saline): 108 % of control and 109 % of control | T/C (dose: 6.25 mg/kg/injection, schedule: Q04DX003 (ip), vehicle: saline): 106 % of control and 109 % of control | T/C (dose: 12.5 mg/kg/injection, schedule: Q04DX003 (ip), vehicle: saline): 104 % of control

CCN1/C(=C/C=C/c2oc3ccccc3[n+]2CC)Oc2ccccc21
T/C (dose: 0.13 mg/kg/injection, schedule: Q01DX010 (ip), vehicle: saline): 118 % of control | T/C (dose: 0.15 mg/kg/injection, schedule: Q01DX009 (ip), vehicle: saline): 108 % of control | T/C (dose: 0.25 mg/kg/injection, schedule: Q01DX010 (ip), vehicle: saline): 118 % of control | T/C (dose: 0.6 mg/kg/injection, schedule: Q01DX009 (ip), vehicle: Klucel (hydroxypropylcellulose) (HPC)): 165 % of control | T/C (dose: 37.5 micrograms/kg/injection, schedule: Q01DX009 (ip), vehicle: Klucel (hydroxypropylcellulose) (HPC)): 108 % of control | T/C (dose: 75.0 micrograms/kg/injection, schedule: Q01DX009 (ip), vehicle: Klucel (hydroxypropylcellulose) (HPC)): 104 % of control | T/C (dose: 150.0 micrograms/kg/injection, schedule: Q01DX009 (ip), vehicle: Klucel (hydroxypropylcellulose) (HPC)): 116 % of control

CC(=O)N(C)c1ccc(Nc2cc(C)[nH]c3ccc4ncnc4c23)cc1
T/C (dose: 50.0 mg/kg/injection, schedule: Q04DX002 (ip), vehicle: saline): 158 % of control | T/C (dose: 100.0 mg/kg/injection, schedule: Q04DX002 (ip), vehicle: saline with Tween-80): 181 % of control | T/C (dose: 100.0 mg/kg/injection, schedule: Q04DX002 (ip), vehicle: saline): 181 % of control

CCOc1ccc(Br)cc1/C=C/C(C)=O
T/C [6]: 109 % of control | T/C [7]: 112 % of control | T/C [8]: 95 % of control | T/C [10]: 95 % of control | T/C [9]: 104 % of control | T/C [5]: 100 % of control

CCOC(=O)C1Cc2c([nH]c(=S)[nH]c2=O)OC1c1ccccc1 (stereo not drawn)
T/C (dose: 12.5 mg/kg/injection, schedule: Q01DX009 (ip), vehicle: saline with Tween-80): 100 % of control | T/C (dose: 25.0 mg/kg/injection, schedule: Q01DX009 (ip), vehicle: saline with Tween-80): 90 % of control | T/C (dose: 50.0 mg/kg/injection, schedule: Q01DX009 (ip), vehicle: saline with Tween-80): 104 % of control

CCCCCCCCNCCCCCCCC
T/C (dose: 9.0 mg/kg/injection, schedule: Q01DX009 (ip), vehicle: gum acacia): 108 % of control and 113 % of control | T/C (dose: 9.0 mg/kg/injection, schedule: Q04DX003 (ip), vehicle: gum acacia): 100 % of control | T/C (dose: 18.0 mg/kg/injection, schedule: Q01DX009 (ip), vehicle: gum acacia): 95 % of control and 108 % of control | T/C (dose: 18.0 mg/kg/injection, schedule: Q04DX003 (ip), vehicle: gum acacia): 95 % of control | T/C (dose: 37.0 mg/kg/injection, schedule: Q01DX009 (ip), vehicle: gum acacia): 104 % of control and 116 % of control | T/C (dose: 37.0 mg/kg/injection, schedule: Q04DX003 (ip), vehicle: gum acacia): 100 % of control

Cc1cc(N)on1
T/C [6]: 100 % of control | T/C [7]: 109 % of control | T/C [8]: 96 % of control | T/C [10]: 109 % of control | T/C [5]: 109 % of control

— PubChem BioAssay AID328 (DTP/NCI, 2004)
